In patent publication US20220387602A1, “BIFUNCTIONAL DEGRADERS AND THEIR METHODS OF USE” (NOVARTIS AG, priority 2019, published 2022):

Legend:
[1] = target: T1, CRBN (Homo sapiens, UniProt Q96SW2); assay: CRBN displacement assay Format 1 (fluorescence polarization, BodipyFL-lenalidomide probe Compound HH); format: binding
Protocol: (§1) Compounds were tested in the following biochemical and cellular assays.
(§2) BodipyFL conjugated lenalidomide compound HH was used as a fluorescent probe. […] Protein and substrate were diluted in assay buffer.
All protein and probe containing solutions were handled in ‘Maxymum Recovery’ tubes (Axygen Scientific Inc., Union City, USA). […] For the plate measurements a PHERAstar reader (BMG Labtech, Offenburg, Germany) was used. The instrument was equipped with a specific optics module containing filters and dichoic mirrors for measuring the fluorescence polarization-type assay. With this module, the fluorescence of the Bodipy FL-based probe was excited at 485 nm and the emissions of the product were measured at 520 nm. The fluorescence in each well was excited by 10 flashes per measurement.
For the determination of AC50 values, the assays were performed at room temperature in 384-well plates with a total assay volume of 10.1 μL per well. The test compound was dissolved in 90% (v/v) DMSO/water. For the assays, 100 nL of the 90% (v/v) DMSO/water solution or compound solution were added per well, followed by the addition of 5 μL protein solution (protein in 1× assay buffer).
(§3) The final assay concentration of the protein was nominally 100 nM. After 45 minutes of pre-incubation at room temperature, the competition for binding was started by the addition of 5 μL probe solution (probe dissolved in assay buffer). The final concentration of the probes in the assays was 5 nM. After the addition of the probe solution, the final DMSO concentration in the assay was 0.9% (v/v). The effect of the probe on the pre-established compound-protein complex equilibrium was determined after 45 minutes (t=45 min). The AC50 value was calculated from the plot of percentage of protein saturation versus the test compound concentration by a logistics fit according to: y=A^2+(A^1−A^2)/(1+(x/AC50)^p), where y is the %-saturation value at the test compound concentration, x. A^1 is the lowest saturation value, i.e., 0%, and A^2 the maximum saturation value, i.e. 100%. The exponent, p, is the Hill coefficient.

[2] = target: T1, CRBN; assay: CRBN displacement assay Format 2a (fluorescence polarization, 1536-well, Envision reader); format: binding
Protocol: as §1, §2
The fluorescence of the Bodipy FL-based probe was excited at 480 nm and the emissions of the product were measured at 535 nm. The fluorescence in each well was excited by 30 flashes per measurement.
For the determination of AC50 values, assays were performed at room temperature in 1536-well plates with a total assay volume of 6.03 μL per well. The test compounds were dissolved and diluted in 100% DMSO. For the assays, 30 nL of DMSO or compound solution were added per well, followed by the addition of 3 μL protein solution (80 nM protein in 1× assay buffer).
as §3, with “nominally 40” for “nominally 100”, “of 3” for “of 5”, “solution (10 nM probe” for “solution (probe”, “the probe” for “the probes”, “was 0.5%” for “was 0.9%”

[3] = concentration at which 50% of reference probe Compound HH is displaced, 100 nM protein, 5 nM probe, Table 4, read-out: CRBN AC50 [μM] Format 1
[4] = concentration at which 50% of reference probe Compound HH is displaced, 40 nM protein, 5 nM probe, read-out: CRBN AC50 [μM] Format 2a

T1 sequence (Q96SW2 whole entry): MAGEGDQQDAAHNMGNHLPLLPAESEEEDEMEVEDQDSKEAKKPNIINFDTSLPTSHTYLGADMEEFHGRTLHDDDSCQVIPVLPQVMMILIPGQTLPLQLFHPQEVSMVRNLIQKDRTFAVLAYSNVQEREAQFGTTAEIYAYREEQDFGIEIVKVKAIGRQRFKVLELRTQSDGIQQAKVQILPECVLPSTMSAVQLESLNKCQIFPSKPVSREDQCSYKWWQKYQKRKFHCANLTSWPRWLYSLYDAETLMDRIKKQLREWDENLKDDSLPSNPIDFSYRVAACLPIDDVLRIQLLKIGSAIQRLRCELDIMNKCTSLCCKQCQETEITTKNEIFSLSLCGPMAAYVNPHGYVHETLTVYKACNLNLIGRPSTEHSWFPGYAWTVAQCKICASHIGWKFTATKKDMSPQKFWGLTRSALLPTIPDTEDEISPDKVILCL

| AC50 [1, 3] | AC50 [2, 4] | AC50 [1] | AC50 [2] | SMILES |
| --- | --- | --- | --- | --- |
| 7.37 µM | 2.61 µM |  |  | Cc1cc(OCC(=O)O)ccc1N1CCC(=O)NC1=O [ILB-15] |
| 11.2 µM | 3.79 µM |  |  | O=CCOc1cccc(N2CCC(=O)NC2=O)c1 [ILB-18, 2-(3-(2,4-Dioxotetrahydropyrimidin-1(2H)-yl)phenoxy)acetaldehyde] |
| 5.37 µM | 2.01 µM |  |  | Cc1ccc(OCC(=O)O)cc1N1CCC(=O)NC1=O [ILB-20, 2-(3-(2,4-Dioxotetrahydropyrimidin-1(2H)-yl)-4-methylphenoxy)acetic acid] |
| 2.85 µM | 0.68 µM |  |  | Cc1ccc(C(=O)O)cc1N1CCC(=O)NC1=O [ILB-24, 3-(2,4-dioxotetrahydropyrimidin-1(2H)-yl)-4-methylbenzoic acid] |
| 2.92 µM | 1.26 µM |  |  | COc1ccc(C(=O)O)cc1N1CCC(=O)NC1=O [ILB-26, 3-(2,4-dioxotetrahydropyrimidin-1(2H)-yl)-4-methoxybenzoic acid] |
| 3.03 µM | 0.74 µM |  |  | O=C1CCN(c2cc(C(=O)O)ccc2F)C(=O)N1 [ILB-27, 3-(2,4-dioxotetrahydropyrimidin-1(2H)-yl)-4-fluorobenzoic acid] |
| 3.41 µM | 1.3 µM |  |  | O=C1CCN(c2cccc(C(=O)O)c2)C(=O)N1 [ILB-28, 3-(2,4-dioxotetrahydropyrimidin-1(2H)-yl)benzoic acid] |
| 3.65 µM | 1.91 µM |  |  | C=CCOc1cccc(N2CCC(=O)NC2=O)c1 [ILB-34, 1-(3-(allyloxy)phenyl)dihydropyrimidine-2,4(1H,3H)-dione] |
| 12.3 µM | 3.45 µM |  |  | O=C1CCN(c2ccc(C#CCN3CCOC4(CCNCC4)C3)cc2)C(=O)N1 [ILB-40, 1-(4-(3-(1-oxa-4,9-diazaspiro[5.5]undecan-4-yl)prop-1-yn-1-yl)phenyl)dihydropyrimidine-2,4(1H,3H)-dione] |
| 14.9 µM | 2.16 µM |  |  | Cc1ccc(S(=O)(=O)NCCCCCN)cc1N1CCC(=O)NC1=O [ILB-53, N-(5-aminopentyl)-3-(2,4-dioxotetrahydropyrimidin-1(2H)-yl)-4-methylbenzenesulfonamide] |
|  |  | 14.4 µM | 4.04 µM | O=C1CCN(c2ccc(OCC(=O)N3CCC(OC4CCNCC4)CC3)cc2)C(=O)N1 [ILB-55, 1-(4-(2-Oxo-2-(4-(piperidin-4-yloxy)piperidin-1-yl)ethoxy)phenyl)dihydropyrimidine-2,4(1H,3H)-dione] |
|  |  | 1.26 µM | 0.23 µM | COc1ccc(C(=O)N2CCC3(CCNCC3)CC2)cc1N1CCC(=O)NC1=O [ILB-56, 1-(2-methoxy-5-(3,9-diazaspiro[5.5]undecane-3-carbonyl)phenyl)dihydropyrimidine-2,4(1H,3H)-dione] |

The remaining lines, values behind:

| SMILES | AC50 [1, 3] | AC50 [2, 4] | AC50 [1] | AC50 [2] |
| --- | --- | --- | --- | --- |
| O=C(O)COc1ccc(N2CCC(=O)NC2=O)cc1 [ILB-14, 2-(4-(2,4-Dioxotetrahydropyrimidin-1(2H)-yl)phenoxy)acetic acid] | 13 µM | 5.79 µM |  |  |
| O=C(O)COc1cccc(N2CCC(=O)NC2=O)c1 [ILB-16, 2-(3-(2,4-Dioxotetrahydropyrimidin-1(2H)-yl)phenoxy)acetic acid] | 11.7 µM | 7.34 µM |  |  |
| Cc1ccc(OCC=O)cc1N1CCC(=O)NC1=O [ILB-19, 2-(3-(2,4-dioxotetrahydropyrimidin-1(2H)-yl)-4-methylphenoxy)acetaldehyde] | 2.51 µM | 0.8 µM |  |  |
| O=C1CCN(c2cc(C(=O)O)ccc2Cl)C(=O)N1 [ILB-25, 4-chloro-3-(2,4-dioxotetrahydropyrimidin-1(2H)-yl)benzoic acid] | 1.98 µM | 0.48 µM |  |  |
| O=C1CCN(c2ccc(C(=O)O)cc2)C(=O)N1 [ILB-31] | 9.64 µM | 5.1 µM |  |  |
| C#Cc1cccc(N2CCC(=O)NC2=O)c1 [ILB-33, 1-(3-ethynylphenyl)dihydropyrimidine-2,4(1H,3H)-dione] | 6.52 µM | 2.68 µM |  |  |
| O=C1CCN(c2c(F)cc(C#CC3CCNCC3)cc2F)C(=O)N1 [ILB-38, 1-(2,6-difluoro-4-(piperidin-4-ylethynyl)phenyl)dihydropyrimidine-2,4(1H,3H)-dione] | 8.44 µM | 6.02 µM |  |  |
| CC(C)(C)OC(=O)NCC#Cc1cc(F)c(N2CCC(=O)NC2=O)c(F)c1 [ILB-43, tert-Butyl (3-(4-(2,4-dioxotetrahydropyrimidin-1(2H)-yl)-3,5-difluorophenyl)prop-2-yn-1-yl)carbamate] |  |  | 2.99 µM | 2.93 µM |
| COc1ccc(C(=O)N2CCC(OC3CCNCC3)CC2)cc1N1CCC(=O)NC1=O [ILB-59, 1-(2-methoxy-5-(4-(piperidin-4-yloxy)piperidine-1-carbonyl)phenyl)dihydropyrimidine-2,4(1H,3H)-dione] |  |  | 1.36 µM | 0.34 µM |
| COc1cc(C(=O)O)ccc1N1CCC(=O)NC1=O [ILB-81, 4-(2,4-dioxotetrahydropyrimidin-1(2H)-yl)-3-methoxybenzoic acid] | 12.3 µM | 2.38 µM |  |  |
